Laboratory results published in US20210253651A1, “METHOD FOR PRODUCING ORGANIC COMPOUND-ENCAPSULATING FERRITIN” (Ajinomoto Co., Inc., priority 2018, published 2021).
Structures can show the parent of a compound that is named as a salt. Where two headings read alike, the source gives them in different places.

What was measured:
FTH ferritin = biological target: T1, FTH ferritin (Homo sapiens, UniProt P02794); assay: disassembly-reassembly process incorporation of DOX into FTH ferritin; assay type: physicochemical; details: standing 15 minutes, DOX 0.2 mg/L
T1 construct: made in house; host or cells: Escherichia coli BL21 (DE3), plasmid pET20-FTH
T1 sequence (P02794 whole entry): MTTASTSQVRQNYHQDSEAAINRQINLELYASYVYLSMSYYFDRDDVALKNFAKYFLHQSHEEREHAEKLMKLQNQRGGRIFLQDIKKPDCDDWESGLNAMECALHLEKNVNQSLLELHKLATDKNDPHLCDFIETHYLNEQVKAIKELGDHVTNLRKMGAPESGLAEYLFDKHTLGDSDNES
Procedure: Then, 10 μL of 1M Tris-HCl buffer (pH 9.0) was added for neutralization, and the resulting solution was left to stand for 5 to 120 minutes at room temperature. After the standing, 0.5 mL of water was added to the resulting solution. After the resulting solution was centrifuged (at 15,000 rpm for one minute), the supernatant was injected into the desalting column PD-10 (Sephadex G-25 filled product, GE Healthcare Inc.) equilibrated with 10 mM Tris-HCl buffer (pH 8) to separate the protein from a reagent that was not encapsulated. Whole amount (3.5 mL) of the resulting solution was concentrated to 0.1 mL by centrifugal ultrafiltration using Vivaspin 20-100K (GE Healthcare Inc.), and then the absorbances at 280 nm and 480 nm were measured using spectrophotometer (DU-800, Beckman Coulter Inc.).

FTH-BC-TBP ferritin = assay: one-step incorporation of DOX into mutant ferritin FTH-BC-TBP; assay type: physicochemical, human; details: pH 8, 50° C., 60 minutes, DOX 0.3 mg/L
Procedure: Total synthesis was carried out for a DNA encoding a human-derived ferritin H chain (FTH-BC-TBP) monomer in which a titanium recognizing peptide (minTBP1: RKLPDA (SEQ ID NO: 7)) was inserted for fusion at a flexible linker region between second and third α-helices counted from an N-terminus of a ferritin monomer comprising six α-helices. PCR was carried out using the synthesized DNA as a template as well as the following primers: 5′-[…]-3′ (SEQ ID NO: 8) and 5′-[…]-3′ (SEQ ID NO: 9). PCR was carried out using pET20 (Merck KGaA) as a template as well as the following primers: 5′-[…]-3′ (SEQ ID NO: 10) and 5′-[…]-3′ (SEQ ID NO: 11). […]
(§1) DOX was mixed with 1 mL of 50 mM Tris-HCl buffer (pH 8) that contains each mutate ferritin at a final concentration of 1 mg/mL, to achieve a final concentration of 0.3 mg/L, and then the resulting solutions were left to stand at 50° C. for 60 minutes. […] The concentration of contained protein was determined using the protein assay CBB solution (Nacalai Tesque, Inc.) as well as bovine albumin as a standard. The DOX concentration was determined based on analysis of the absorbance at 480 nm.

HER2a-FTH ferritin = biological target: T2, HER2a-FTH ferritin (Homo sapiens, UniProt P02794); assay: one-step incorporation of DOX into HER2a-FTH ferritin; assay type: physicochemical; details: pH 9, 50° C., 60 minutes, DOX 0.3 mg/L
T2 construct: pET20-FTH carrying a DNA encoding a human-derived ferritin H chain monomer as a template; made in house; host or cells: Escherichia coli BL21 (DE3), plasmid pET20-HER2a-FTH
T2 sequence (P02794 with tags, fused parts or gaps limits assumed): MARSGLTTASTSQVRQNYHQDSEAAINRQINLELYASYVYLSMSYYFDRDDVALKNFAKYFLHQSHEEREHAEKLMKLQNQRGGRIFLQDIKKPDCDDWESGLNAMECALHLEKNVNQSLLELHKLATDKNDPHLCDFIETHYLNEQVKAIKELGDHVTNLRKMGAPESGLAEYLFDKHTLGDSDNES
Procedure: First, PCR was carried out using pET20-FTH carrying a DNA encoding a human-derived ferritin H chain monomer as a template as well as the following primers: 5′-[…]-3′(SEQ ID NO: 15) and 5′-[…]-3′(SEQ ID NO: 16) in order to obtain a DNA encoding the human-derived ferritin H chain (HER2a-FTH) monomer in which a cancer recognition peptide (HER2a: MARSGL (SEQ ID NO: 14); M Houimel et al., Int. J. Cancer 92, 748-755. (2001) which is incorporated herein by reference in its entirety) is inserted and fused at the N-terminus of the ferritin monomer. The resulting PCR products were purified using Wizard DNA Clean-Up System (Promega Corporation), and then treated with restriction enzymes, Dpnl and Ndel (Takara Bio Inc.) for self-ligation in order to construct an expression plasmid (pET20-HER2a-FTH) carrying a gene encoding HER2a-FTH. […]
as §1, with “9)” for “8)”

ferritin = details: cited from earlier work

COc1cccc2c1C(=O)c1c(O)c3c(c(O)c1C2=O)C[C@@](O)(C(=O)CO)C[C@@H]3OC1CC(N)C(O)C(C)O1 (stereo partly shown) [DOX, Doxorubicin hydrochloride]
highest incorporation efficiency of the reagent (FTH ferritin): 2 % (wt) | incorporation efficiency of the reagent (FTH-BC-TBP ferritin): 6.5 % (wt) | incorporation efficiency of the reagent (HER2a-FTH ferritin): 14.6 % (wt) | doxorubicin molecules encapsulated in ferritin (ferritin; denaturing with urea and refolding): approximately 33 molecules | doxorubicin molecules encapsulated in ferritin (ferritin; disassembly at pH 2, reassembly at pH 7-9): approximately 28 molecules | doxorubicin molecules encapsulated in ferritin (ferritin; high pressure (200-800 MPa) for 6-20 hours): 10-20 molecules | doxorubicin molecules encapsulated in ferritin (ferritin; modified ferritin, pH 2 by addition of HCl): 30-90 molecules
